Publication PMC11111404, “Discovery of potent small-molecule inhibitors of lipoprotein(a) formation” (Nature, 2024)
Where two headings read alike, the source gives them in different places. Blank lines part the entries; values can stand above or below the compound they belong to.

Key:
apo(a) KIV5–8 [1] = target: T1, apo(a) KIV5–8 (Homo sapiens, UniProt P08519); test: ITC binding to apo(a) KIV5–8
T1 construct: made in house
T1 sequence (P08519 1043-1470 limits assumed): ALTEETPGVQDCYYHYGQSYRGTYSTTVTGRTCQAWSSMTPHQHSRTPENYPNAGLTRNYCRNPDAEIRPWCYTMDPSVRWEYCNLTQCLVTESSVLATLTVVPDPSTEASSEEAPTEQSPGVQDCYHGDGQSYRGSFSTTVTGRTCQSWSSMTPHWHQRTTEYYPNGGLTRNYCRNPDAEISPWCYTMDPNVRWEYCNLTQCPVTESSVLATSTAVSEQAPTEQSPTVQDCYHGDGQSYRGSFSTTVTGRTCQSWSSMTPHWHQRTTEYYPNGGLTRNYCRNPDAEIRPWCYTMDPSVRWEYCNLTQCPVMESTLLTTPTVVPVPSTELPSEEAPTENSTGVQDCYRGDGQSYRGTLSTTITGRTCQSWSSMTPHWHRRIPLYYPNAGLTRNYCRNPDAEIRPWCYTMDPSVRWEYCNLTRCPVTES
Method: (§1) The nucleotide sequence encoding the human LPA gene (NP_005568.2) was inserted into a mammalian expression vector containing a cytomegalovirus promoter. Protein expression was performed by transient transfection of human embryonic kidney 293 (HEK293) cells cultured in serum-free medium. The culture medium was collected five days after transfection and human apo(a) protein was purified using L-lysine affinity chromatography. Nucleotide sequences encoding various KIV domains of human apo(a) and human and rat plasminogen were inserted into a pET21a Escherichia coli expression vector. Bacterial BL21(DE3) was used as the expression host, and the induction of protein expression was performed in 2× TY medium with 1 mM isopropyl β-D-1-thiogalactopyranoside at 37 °C for 5 h. Cells were collected and stored at –80 °C for subsequent protein purification and refolding. […] All protein concentrations were determined by A280.
Experiments were performed on a MicroCal Auto-iTC200 titration calorimeter (Malvern Panalytical), with a cell volume of 200 μl and a 40-μl microsyringe. […] The microsyringe was loaded with a solution of the respective compounds, with the concentration measured by quantitative nuclear magnetic resonance, and was inserted into the calorimetric cell prefilled with the respective recombinant proteins of known concentration in ITC buffer. […]

[2] = target: T2, Lp(a) assembly (recombinant human 16K apo(a) and apoB) (Homo sapiens, UniProt P08519); test: In vitro Lp(a) assembly assay; type: biochemical
T2 construct: containing one KIV type 1, six KIV type 2 repeats, one each of KIV types 3–10 and one KV; expressed in transfected cells; host or cells: Conditioned medium of HEK293 (CRL-1573) stably expressing 16K apo(a), combined with conditioned medium of wild-type HepG2 (HB-8065) for endogenous apoB
T2 sequence (P08519 20-2040): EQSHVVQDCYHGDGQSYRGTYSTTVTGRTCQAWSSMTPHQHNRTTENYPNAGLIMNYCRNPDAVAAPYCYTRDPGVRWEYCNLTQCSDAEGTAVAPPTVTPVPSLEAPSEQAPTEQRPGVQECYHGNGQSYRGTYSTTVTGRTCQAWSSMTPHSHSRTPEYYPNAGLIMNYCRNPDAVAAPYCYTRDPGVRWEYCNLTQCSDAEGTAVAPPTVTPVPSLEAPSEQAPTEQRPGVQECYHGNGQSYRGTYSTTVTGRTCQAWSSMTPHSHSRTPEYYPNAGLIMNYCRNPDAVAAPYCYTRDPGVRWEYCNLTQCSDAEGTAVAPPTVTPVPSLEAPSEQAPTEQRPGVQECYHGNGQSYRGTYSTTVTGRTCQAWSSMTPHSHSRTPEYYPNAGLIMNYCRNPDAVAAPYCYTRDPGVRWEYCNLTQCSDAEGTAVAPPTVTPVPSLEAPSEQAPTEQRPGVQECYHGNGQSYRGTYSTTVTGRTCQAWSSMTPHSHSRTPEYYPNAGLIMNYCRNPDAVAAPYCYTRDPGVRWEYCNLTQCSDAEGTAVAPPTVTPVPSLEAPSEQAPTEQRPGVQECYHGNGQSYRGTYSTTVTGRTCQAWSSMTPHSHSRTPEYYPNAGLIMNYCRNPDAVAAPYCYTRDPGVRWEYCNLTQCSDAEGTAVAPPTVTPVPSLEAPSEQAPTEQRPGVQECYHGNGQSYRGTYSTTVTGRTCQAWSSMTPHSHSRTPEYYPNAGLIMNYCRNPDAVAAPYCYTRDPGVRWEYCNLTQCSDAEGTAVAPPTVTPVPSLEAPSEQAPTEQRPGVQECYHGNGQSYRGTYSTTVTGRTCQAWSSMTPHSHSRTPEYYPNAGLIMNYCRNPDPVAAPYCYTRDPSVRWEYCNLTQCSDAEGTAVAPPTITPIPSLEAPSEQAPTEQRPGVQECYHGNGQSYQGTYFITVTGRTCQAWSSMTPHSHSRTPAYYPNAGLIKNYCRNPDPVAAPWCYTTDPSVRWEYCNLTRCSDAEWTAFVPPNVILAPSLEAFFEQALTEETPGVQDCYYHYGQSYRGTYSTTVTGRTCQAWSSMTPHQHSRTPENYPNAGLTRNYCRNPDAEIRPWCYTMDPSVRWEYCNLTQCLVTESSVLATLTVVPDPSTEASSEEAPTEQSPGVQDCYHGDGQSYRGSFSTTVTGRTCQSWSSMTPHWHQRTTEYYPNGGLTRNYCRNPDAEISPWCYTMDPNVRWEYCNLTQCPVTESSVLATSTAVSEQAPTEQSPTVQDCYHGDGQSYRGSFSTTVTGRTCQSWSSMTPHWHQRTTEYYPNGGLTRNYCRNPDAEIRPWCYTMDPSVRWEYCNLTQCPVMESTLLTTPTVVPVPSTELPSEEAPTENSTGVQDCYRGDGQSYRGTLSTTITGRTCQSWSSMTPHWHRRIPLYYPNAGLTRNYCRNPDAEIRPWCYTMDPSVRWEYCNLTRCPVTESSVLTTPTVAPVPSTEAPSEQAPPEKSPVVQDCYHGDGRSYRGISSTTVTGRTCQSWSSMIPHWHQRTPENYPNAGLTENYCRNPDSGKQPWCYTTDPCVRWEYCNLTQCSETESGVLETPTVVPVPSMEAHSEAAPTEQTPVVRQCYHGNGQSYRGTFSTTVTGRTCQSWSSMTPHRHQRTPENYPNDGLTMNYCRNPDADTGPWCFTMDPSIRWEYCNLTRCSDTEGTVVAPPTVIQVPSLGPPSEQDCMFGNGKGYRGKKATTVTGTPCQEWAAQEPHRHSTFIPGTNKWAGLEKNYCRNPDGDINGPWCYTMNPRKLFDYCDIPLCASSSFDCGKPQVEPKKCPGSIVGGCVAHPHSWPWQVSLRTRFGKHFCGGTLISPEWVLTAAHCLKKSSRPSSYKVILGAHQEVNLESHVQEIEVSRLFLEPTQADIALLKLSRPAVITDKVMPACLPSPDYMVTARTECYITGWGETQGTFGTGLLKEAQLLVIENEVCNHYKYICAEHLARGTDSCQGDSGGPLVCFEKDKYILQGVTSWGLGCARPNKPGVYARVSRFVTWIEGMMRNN
Method: HepG2 cells (HB-8065, ATCC) were cultured in Dulbecco’s modified Eagle’s medium, supplemented with 10% fetal bovine serum, 20 mM 4-(2-hydroxyethyl)-1-piperazineethanesulfonic acid (HEPES) and 100 U ml^−1 penicillin–streptomycin. apoB-conditioned media were collected after 24 h of culture at 37 °C and 5% CO2 from confluent wild-type HepG2 cells that endogenously express and secrete apoB. Apo(a)-conditioned media were collected after 24 h of culture at 37 °C and 5% CO2 from HEK293 cells (CRL-1573, ATCC) that stably express and secrete recombinant human 16K apo(a) protein containing one KIV type 1, six KIV type 2 repeats, one each of KIV types 3–10 and one KV.
The assembly assay was conducted in 96-well polypropylene plates by combining HepG2 and apo(a)-HEK293-conditioned media in the presence of a range of compound concentrations. After a two-hour incubation period at 37 °C, the reaction was stopped by the addition of 6-aminocaproic acid. Lp(a) was detected using a sandwich enzyme-linked immunosorbent assay (ELISA), with a polyclonal goat anti-apo(a) capture antibody (Abcam ab31675) and a biotin-conjugated, polyclonal goat anti-apoB detection antibody (Abcam ab20898). In brief, ELISA plates were coated with 100 μl of the capture antibody at a 1:12,500 dilution (around 4 μg ml^−1) into HEPES-buffered saline (HBS), incubated overnight at 4 °C, washed and blocked by the addition of 200 μl of 1% casein. After removal of the blocking buffer, 20 μl of each of the assembly reactions or of a dilution series of purified human Lp(a) (Athens Research, 12-16-121601), diluted 1:5 into HBS supplemented with 0.5% casein, were added to the ELISA plate. […] Absorbance at 450 nm was measured on an Envision plate reader.
The concentration of Lp(a) formed in each test condition was determined on the basis of the standard curve constructed from the purified human Lp(a) used as a reference standard, and was normalized to high (buffer) and low (no apoB) controls. […] Data were analysed in GraphPad Prism v.9.5.1.

apo(a) KIV7 [3] = target: T3, apo(a) KIV7 (Homo sapiens, UniProt P08519); test: Radioligand binding to apo(a) KIV7
T3 construct: made in house
Method: (§2) The nucleotide sequence encoding the human LPA gene (NP_005568.2) was inserted into a mammalian expression vector containing a cytomegalovirus promoter. Protein expression was performed by transient transfection of human embryonic kidney 293 (HEK293) cells cultured in serum-free medium. The culture medium was collected five days after transfection and human apo(a) protein was purified using L-lysine affinity chromatography. Nucleotide sequences encoding various KIV domains of human apo(a) and human and rat plasminogen were inserted into a pET21a Escherichia coli expression vector. Bacterial BL21(DE3) was used as the expression host, and the induction of protein expression was performed in 2× TY medium with 1 mM isopropyl β-D-1-thiogalactopyranoside at 37 °C for 5 h. Cells were collected and stored at –80 °C for subsequent protein purification and refolding. The frozen cell pellets were lysed and inclusion bodies were purified. The protein refolding was performed using the rapid-dilution method, and the refolded proteins were further purified by size-exclusion chromatography. All protein concentrations were determined by A280.
(§3) Full-length apo(a) and various shorter constructs were prepared as described. Human and rat plasminogen, purified from plasma by affinity chromatography, were obtained from Innovative Research (IHGPG and IRPLG, respectively).
(§4) All reagents used in the binding assays were prepared in assay buffer containing 50 mM Tris-HCl, pH 7.4, and 0.1% bovine serum albumin. […]
(§5) Saturation binding studies of ^3H-LSN3441732 or ^3H-LSN3374443 were conducted by adding to each well of a white-wall, clear-bottom 96-well plate, 50 µl each of (1) dimethyl sulfoxide (DMSO) or a saturating concentration (40 μM) of an unlabelled ligand; (2) protein diluted into assay buffer; (3) resuspended wheat germ agglutinin polyvinyltoluene scintillation proximity assay beads (2 mg ml^−1); and (4) a dilution series of radioligand. Plates were incubated for one to two hours at room temperature and counted on a Wallac Trilux 1450 liquid scintillation counter. […]

[4] = target: T4, full-length recombinant 16K apo(a) (Homo sapiens, UniProt P08519); test: Radioligand binding to full-length recombinant 16K apo(a)
T4 construct: Full-length apo(a) and various shorter constructs were prepared as described; made in house
T4 sequence (P08519 20-2040): as above
Method: as §2, §3
(§6) All reagents used in the binding assays were prepared in assay buffer containing 50 mM Tris-HCl, pH 7.4, and 0.1% bovine serum albumin. All apo(a) proteins were diluted to a final concentration of 200 pM. Human and rat plasminogen were diluted into assay buffer, and 250 ng was added to each well.
Saturation binding studies of ^3H-LSN3441732 or ^3H-LSN3374443 were conducted by adding to each well of a white-wall, clear-bottom 96-well plate, 50 µl each of (1) dimethyl sulfoxide (DMSO) or a saturating concentration (40 μM) of an unlabelled ligand; (2) protein diluted into assay buffer; (3) resuspended wheat germ agglutinin polyvinyltoluene scintillation proximity assay beads (2 mg ml^−1); and (4) a dilution series of radioligand. Plates were incubated for one to two hours at room temperature and counted on a Wallac Trilux 1450 liquid scintillation counter. Non-specific binding, defined as binding in the presence of the unlabelled ligand, was subtracted to determine specific binding. Specific binding was plotted as a function of ligand concentration, and a single-site binding equation of the form y = Bmax × x/(Kd + x) was fitted to the data, where Bmax is the maximum saturable binding and Kd is the equilibrium dissociation constant.

apo(a) KIV7–8 = target: T5, apo(a) KIV7–8 (Homo sapiens, UniProt P08519); test: Radioligand binding to apo(a) KIV7–8
T5 construct: purified recombinant apo(a) KIV7–8 protein; made in house
T5 sequence (P08519 1263-1470 limits assumed): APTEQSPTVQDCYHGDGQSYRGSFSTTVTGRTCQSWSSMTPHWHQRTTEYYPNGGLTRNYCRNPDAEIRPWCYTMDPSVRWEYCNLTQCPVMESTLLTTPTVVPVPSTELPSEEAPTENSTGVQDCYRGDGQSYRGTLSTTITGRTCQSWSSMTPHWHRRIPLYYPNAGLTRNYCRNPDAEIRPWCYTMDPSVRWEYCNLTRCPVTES
Method: as §2, §3, §4, §5

apo(a) KIV5–8 [5] = target: T1, apo(a) KIV5–8; test: Radioligand binding to apo(a) KIV5–8; conditions: Experiment 1, read-out: Kd (nM) KIV5–8 Exp 1
Method: as §1, with “h.” for “h. Cells were collected and stored at –80 °C for subsequent protein purification and refolding.”, “A280. […]” for “A280.”
as §5

apo(a) KIV8 = target: T6, apo(a) KIV8 (Homo sapiens, UniProt P08519); test: Radioligand binding to apo(a) KIV8
T6 construct: made in house
T6 sequence (P08519 1387-1465 limits assumed): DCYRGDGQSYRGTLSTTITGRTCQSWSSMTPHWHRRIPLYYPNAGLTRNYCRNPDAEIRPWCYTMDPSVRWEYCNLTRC
Method: as §1, with “h.” for “h. Cells were collected and stored at –80 °C for subsequent protein purification and refolding.”, “A280. […]” for “A280.”
as §5

rat plasminogen = test: Saturation radioligand binding to rat plasminogen
Method: as §3, §6
as §5, with “counter. Non-specific binding, defined as binding in the presence of the unlabelled ligand, was subtracted to determine specific binding.” for “counter.”

Lp(a) = conditions: humans; cited from earlier work
apo(a) KIV7 [6] = target: apo(a) KIV7; parameters: method as in PMID 11802713; conditions: binding to lysine-binding domain of apo(a) KIV7; cited from earlier work
Lp(a) assembly = tested on: Lp(a) assembly; parameters: method as in PMID 11802713; conditions: cited from earlier work

Kd (apo(a) KIV5–8 [1]): < 15 nM
IC50 [2]: 36 nM
SMILES: COc1cccc(N2CCN(c3cccc(C[C@H](C(=O)O)[C@H]4CCNC4)c3)C2=O)c1 [LSN3374443]

Kd (apo(a) KIV7 [3]; direct radioligand binding, read-out: Kd, single KIV7): 2.8 nM
Kd (apo(a) KIV7 [3]; radioligand binding, Experiment 1, read-out: Kd (nM) KIV7 Exp 1): 3 nM
Kd (apo(a) KIV7 [3]; radioligand binding, Experiment 2, read-out: Kd (nM) KIV7 Exp 2): 2.7 nM
Bmax, full-length apo(a) ([4]; direct radioligand binding): 4.9 fmol ng^−1 apo(a)
Kd ([4]; direct radioligand binding, mean): 0.05 nM
ligands per molecule of apo(a) ([4]; from Bmax): one
fold affinity increase versus ^3H-LSN3374443 ([4]; full-length apo(a)): 50 fold
Kd (apo(a) KIV7–8; direct radioligand binding, read-out: Kd, KIV7–8): 0.21 nM
Kd (apo(a) KIV7–8; radioligand binding, Experiment 1, read-out: Kd (nM) KIV7–8 Exp 1): 0.32 nM
Kd (apo(a) KIV7–8; radioligand binding, Experiment 2, read-out: Kd (nM) KIV7–8 Exp 2): 0.1 nM
Kd (apo(a) KIV5–8 [5]): 0.33 nM
Kd (apo(a) KIV8; direct radioligand binding, read-out: Kd, single KIV8): 2 nM
Kd (apo(a) KIV8; radioligand binding, Experiment 1, read-out: Kd (nM) KIV8 Exp 1): 3 nM
fold higher affinity for rat plasminogen than for human plasminogen (rat plasminogen): 50 fold
SMILES: O=C(Nc1cccc(C[C@H](C(=O)O)[C@H]2CCNC2)c1)Nc1cccc(C[C@H](C(=O)O)[C@H]2CCNC2)c1 [^3H-LSN3441732]

SMILES: NC[C@H]1CC[C@H](C(=O)O)CC1 [tranexamic acid]
levels of Lp(a) in a small clinical study (Lp(a)): reduce the levels of Lp(a)
Kd (apo(a) KIV7 [6]): 63000 nM
in vitro assembly of Lp(a) (Lp(a) assembly): inhibited

SMILES: NCCCCCC(=O)O [ε-aminocaproic acid]
Kd (apo(a) KIV7 [6]): 230000 nM
in vitro assembly of Lp(a) (Lp(a) assembly): inhibited
